Test results taken from publication PMC8050276, “Estradiol analogs attenuate autophagy, cell migration and invasion by direct and selective inhibition of TRPML1, independent of estrogen receptors” (Scientific Reports, 2021).
pIC50: −log10 of the molar value. Values joined by “and” are separate entries in the source; they are usually repeats but may differ in a detail not shown here. Equal values may be shown once. Read-outs that look alike come from different tables or passages of the source.

Legend:
[1] = molecular target: hTRPML1∆NC-YFP (Homo sapiens, UniProt Q9GZU1); type: cell-based; conditions: for inhibitory effect on TRPML1: 12.5 µM compound, 5 µM ML-SA1, Fig. 1f; for TRPML1-inhibitory activity, SAR summary: random screening or consecutive experiments
Sequence of hTRPML1∆NC-YFP (Homo sapiens, UniProt Q9GZU1) (Q9GZU1 whole entry): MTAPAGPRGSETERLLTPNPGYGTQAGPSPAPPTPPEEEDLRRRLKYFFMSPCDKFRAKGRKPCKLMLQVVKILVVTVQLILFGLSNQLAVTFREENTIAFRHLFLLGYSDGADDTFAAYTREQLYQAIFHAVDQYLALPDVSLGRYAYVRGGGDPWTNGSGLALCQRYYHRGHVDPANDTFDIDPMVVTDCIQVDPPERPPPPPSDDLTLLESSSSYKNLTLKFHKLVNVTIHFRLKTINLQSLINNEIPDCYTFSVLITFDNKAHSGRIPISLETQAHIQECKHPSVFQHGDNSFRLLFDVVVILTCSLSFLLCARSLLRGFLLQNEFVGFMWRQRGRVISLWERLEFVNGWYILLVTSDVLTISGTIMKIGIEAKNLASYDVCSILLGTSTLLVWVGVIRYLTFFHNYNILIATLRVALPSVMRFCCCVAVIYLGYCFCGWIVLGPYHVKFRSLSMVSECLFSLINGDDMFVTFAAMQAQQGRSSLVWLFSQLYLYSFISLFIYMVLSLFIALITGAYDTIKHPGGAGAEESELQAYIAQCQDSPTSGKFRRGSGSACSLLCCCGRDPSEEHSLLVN
Experimental: (§1) To identify inhibitors of TRPML1 and TRPML3, the Spectrum Collection compound library (MS Discoveries; 2000 compounds) and additional 430 bioactive compounds were screened. To this end, fluorometric Ca^2+ influx assays were performed by using the calcium dye Fluo-4/AM (Invitrogen, Thermo Fisher Scientific, Waltham, MA, USA) and a custom-made fluorescence imaging plate reader built into a robotic liquid handling station (Freedom Evo 150, Tecan, Männedorf, Switzerland). […] Screening compounds dissolved in DMSO (10 mM) were prediluted in 150 mM NaCl, 20 mM HEPES, pH 7.4, to a concentration of 200 µM. For primary screens, HEK293 stably expressing plasma membrane-targeted TRPML1 or TRPML3 were trypsinized and resuspended in cell culture medium supplemented with 4 µM Fluo-4/AM. After incubation at 37 °C for 30 min, the cell suspension was briefly centrifuged resuspended in HBS, and dispensed into black pigmented, clear-bottom 384-well microwell plates (Greiner μClear, Frickenhausen, Germany). Plates were placed into the FLIPR and fluorescence signals (excitation 470 nm, emission 515 nm) were recorded with a Zyla 5.5 camera (Andor, Belfast, UK) and the μManager software like previously described. In a first video, compound libraries were successively added to the cells with the Tecan 96-tip multichannel arm to a final concentration of 20 µM to map unspecific effects like autofluorescence or toxicity. In a second step the agonist ML-SA1 was pipetted in each well and fluorescence signals were recorded for 10 min. Analyses were done by calculating fluorescence intensities for each well and background areas with ImageJ (National Institutes of Health, Bethesda, MD, USA). Finally, the background was subtracted and the fluorescence intensities were normalized to initial intensities (F/F0). Concentration response curves were generated by the same procedure but compounds were manually prediluted in 96-well plates containing HBS, now supplemented with 0.1% bovine serum albumin. Here data was fitted to a four-parameter Hill equation to obtain Imin, Imax, IC50), and the Hill coefficient n.

[2] = test system: hTRPML1∆NC-YFP; type: cell-based, human; conditions: for primary screen result: 20 µM compound, 5 µM ML-SA1, TRPML1 and TRPML3; for TRPML1 versus TRPML3 selectivity: Fluo-4, TRPML1 vs TRPML3, 5 µM ML-SA1; for TRPML1:TRPML2 fold selectivity / TRPML1:TRPML3 fold selectivity: ratio of Fluo-4 IC50 values
Experimental: as §1

[3] = molecular target: T1, hTRPML3-YFP (Homo sapiens, UniProt Q8TDD5); test: Fluo-4 Ca2+ influx assay, HEK293 stably expressing hTRPML3-YFP, activated with ML-SA1; type: cell-based; conditions: for inhibitory effect on TRPML3: 12.5 µM compound, 5 µM ML-SA1, Fig. 1f; for pIC50: Fluo-4, 5 µM ML-SA1, Table S1, read-out: TRPML3 IC50
T1 construct: expressed in transfected cells
T1 sequence (Q8TDD5 whole entry): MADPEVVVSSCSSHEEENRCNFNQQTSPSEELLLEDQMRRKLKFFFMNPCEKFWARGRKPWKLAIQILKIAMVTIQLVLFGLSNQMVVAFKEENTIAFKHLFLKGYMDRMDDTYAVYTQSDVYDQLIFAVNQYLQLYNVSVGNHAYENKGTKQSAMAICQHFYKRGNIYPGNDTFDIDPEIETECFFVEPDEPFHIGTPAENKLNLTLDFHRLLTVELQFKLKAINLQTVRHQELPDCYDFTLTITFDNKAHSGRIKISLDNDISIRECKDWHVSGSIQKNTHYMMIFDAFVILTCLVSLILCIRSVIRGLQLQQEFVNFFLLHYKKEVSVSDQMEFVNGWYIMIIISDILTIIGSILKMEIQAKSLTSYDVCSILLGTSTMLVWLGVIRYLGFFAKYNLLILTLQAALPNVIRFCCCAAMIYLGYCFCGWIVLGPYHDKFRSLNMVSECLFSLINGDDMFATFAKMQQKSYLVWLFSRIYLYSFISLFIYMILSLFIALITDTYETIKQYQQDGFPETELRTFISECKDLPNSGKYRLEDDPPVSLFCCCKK
Experimental: To identify inhibitors of TRPML1 and TRPML3, the Spectrum Collection compound library (MS Discoveries; 2000 compounds) and additional 430 bioactive compounds were screened. To this end, fluorometric Ca^2+ influx assays were performed by using the calcium dye Fluo-4/AM (Invitrogen, Thermo Fisher Scientific, Waltham, MA, USA) and a custom-made fluorescence imaging plate reader built into a robotic liquid handling station (Freedom Evo 150, Tecan, Männedorf, Switzerland). All measurements were done in a HEPES buffered solution (HBS), containing 132 mM NaCl, 6 mM KCl, 1 mM MgCl2, 1 mM CaCl2, 5.5 mM D-glucose, 10 mM HEPES, pH 7.4. Screening compounds dissolved in DMSO (10 mM) were prediluted in 150 mM NaCl, 20 mM HEPES, pH 7.4, to a concentration of 200 µM. For primary screens, HEK293 stably expressing plasma membrane-targeted TRPML1 or TRPML3 were trypsinized and resuspended in cell culture medium supplemented with 4 µM Fluo-4/AM. After incubation at 37 °C for 30 min, the cell suspension was briefly centrifuged resuspended in HBS, and dispensed into black pigmented, clear-bottom 384-well microwell plates (Greiner μClear, Frickenhausen, Germany). Plates were placed into the FLIPR and fluorescence signals (excitation 470 nm, emission 515 nm) were recorded with a Zyla 5.5 camera (Andor, Belfast, UK) and the μManager software like previously described. In a first video, compound libraries were successively added to the cells with the Tecan 96-tip multichannel arm to a final concentration of 20 µM to map unspecific effects like autofluorescence or toxicity. In a second step the agonist ML-SA1 was pipetted in each well and fluorescence signals were recorded for 10 min. Analyses were done by calculating fluorescence intensities for each well and background areas with ImageJ (National Institutes of Health, Bethesda, MD, USA). Finally, the background was subtracted and the fluorescence intensities were normalized to initial intensities (F/F0). Concentration response curves were generated by the same procedure but compounds were manually prediluted in 96-well plates containing HBS, now supplemented with 0.1% bovine serum albumin. Here data was fitted to a four-parameter Hill equation to obtain Imin, Imax, IC50), and the Hill coefficient n.

[4] = molecular target: T2, hTRPML2-YFP (Homo sapiens, UniProt Q8IZK6); test: Fluo-4 Ca2+ influx assay, HEK293 stably expressing hTRPML2-YFP, activated with ML-SA1; type: cell-based; conditions: TRPML2 IC50, Fluo-4, 5 µM ML-SA1, Table S1
T2 construct: expressed in transfected cells
T2 sequence (Q8IZK6 1-566): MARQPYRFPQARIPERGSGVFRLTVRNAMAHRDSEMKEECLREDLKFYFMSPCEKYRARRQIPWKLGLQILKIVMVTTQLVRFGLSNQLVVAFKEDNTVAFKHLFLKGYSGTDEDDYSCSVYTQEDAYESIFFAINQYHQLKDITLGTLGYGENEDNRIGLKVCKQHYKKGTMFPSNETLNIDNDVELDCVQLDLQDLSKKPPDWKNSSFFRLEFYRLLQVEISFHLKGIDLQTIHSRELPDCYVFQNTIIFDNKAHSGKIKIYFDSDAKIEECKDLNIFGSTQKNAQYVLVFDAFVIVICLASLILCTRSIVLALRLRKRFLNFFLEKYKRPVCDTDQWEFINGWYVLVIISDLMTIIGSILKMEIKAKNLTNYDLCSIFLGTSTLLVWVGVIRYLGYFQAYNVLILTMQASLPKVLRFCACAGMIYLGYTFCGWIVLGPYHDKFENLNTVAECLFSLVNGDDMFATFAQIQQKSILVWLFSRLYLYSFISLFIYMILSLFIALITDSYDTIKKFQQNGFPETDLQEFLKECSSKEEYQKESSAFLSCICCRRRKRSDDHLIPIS

[5] = read-out: TRPML1 IC50, concentration-response retest of screening hits and steroids, Fluo-4, 5 µM ML-SA1, Fig. 1b-e, S1
[6] = read-out: TRPML1 IC50, Fluo-4, 5 µM ML-SA1, Fig. 2a/4, Table S1

Structure (SMILES) | inhibitory effect on TRPML1 [1] | inhibitory effect on TRPML3 [3] | pIC50 [1, 6] | TRPML1:TRPML2 fold selectivity [2] [fold] | TRPML1:TRPML3 fold selectivity [2] [fold] | pIC50 [4] | pIC50 [3] | further results
C=C1C[C@H]2[C@@H]3C=C(C)C4=CC(=O)CC[C@]4(C)[C@H]3CC[C@]2(C)[C@@]1(OC(C)=O)C(C)=O [MGA, melengestrol acetate, reference compound] | – | – | – | – | – | – | – | pIC50 [1, 5]: 4.72 and 4.73; primary screen result [2]: TRPML1 selective hit; TRPML1 versus TRPML3 selectivity [2]: highly TRPML1-selective
C[C@]12CC[C@@H]3c4ccc(O)cc4C[C@@H](CCCCCCCCC[S+]([O-])CCCC(F)(F)C(F)(F)F)[C@H]3[C@@H]1CC[C@@H]2O (stereo partly drawn) [fulvestrant, reference compound] | no effect | no effect | – | – | – | – | – | –
CC(=O)[C@H]1CC[C@H]2[C@@H]3CCC4=CC(=O)CC[C@]4(C)[C@H]3CC[C@]12C [progesterone, reference compound] | much weaker inhibitory effects | – | – | – | – | – | – | pIC50 [1, 5]: 4.92
C[C@]12CCC(=O)C=C1CC[C@@H]1[C@@H]2[C@@H](O)C[C@@]2(C)[C@H]1CC[C@]2(O)C(=O)CO [hydrocortisone, reference compound] | no effect | no effect | – | – | – | – | – | –
C#CC1(O)CC[C@H]2[C@@H]3CCC4=CC(=O)CC[C@@H]4[C@H]3CC[C@@]21CC (mixture of isomers) [norgestrel, reference compound] | no effect | no effect | – | – | – | – | – | –
C[C@]12CC[C@@H]3c4ccc(OS(=O)(=O)C(F)(F)F)cc4CC[C@H]3[C@@H]1CC[C@@H]2O [PRU-9] | – | – | 6.77 | 14.88 | 35.06 | 5.60 | 5.22 | TRPML isoform selectivity profile ([2]; TRPML1, 2, 3 and TPC2, Fluo-4): further improved selectivity profile compared to EDME
C=CCOc1ccc2c(c1)CC[C@@H]1[C@@H]2CC[C@]2(C)[C@@H](O)CC[C@@H]12 [PRU-7] | – | – | 6.14 | 3.62 | 20.82 | 5.58 | 4.82 | –
O=C(O)CCCCCCCCCCCC[C@@H]1C=CCC1 [chaulmoorgic acid, reference compound] | – | – | – | – | – | – | – | primary screen result [2]: TRPML1 selective hit
CC(C)CCC[C@@H](C)[C@H]1CC[C@H]2[C@@H]3CC=C4C[C@@H](O)CC[C@]4(C)[C@H]3CC[C@]12C [cholesterol, reference compound] | no effect | no effect | – | – | – | – | – | –
CC(=O)O[C@@H]1C=C[C@]2(C)C(C[C@@H](OC(C)=O)[C@]3(C)C4=CC(=O)O[C@H](c5ccoc5)[C@@]4(C)CCC23)C1(C)C (stereo partly drawn) [DGA, deoxygedunol acetate, reference compound] | – | – | – | – | – | – | – | primary screen result [2]: TRPML1 selective hit
C[C@]12CCC3c4ccc(OS(=O)(=O)[O-])cc4CCC3C1CC[C@H]2O.[Na+] (stereo partly drawn) [estradiol-3-sulfate sodium salt, reference compound] | – | – | – | – | – | – | – | TRPML1-inhibitory activity, SAR summary [1]: eliminated TRPML1-inhibitory activity
C[C@]12CC[C@H]3[C@@H](CCC4=CC(=O)CC[C@@]43C)[C@@H]1CC[C@@H]2O [testosterone, reference compound] | much weaker inhibitory effects | – | – | – | – | – | – | –
C[C@]12CC[C@@H]3c4ccc(O)cc4CC[C@H]3[C@@H]1CCC2=O [estrone, reference compound] | no effect | no effect | – | – | – | – | – | –
C[C@]12CC[C@@H]3c4ccc(OC(F)F)cc4CC[C@H]3[C@@H]1CC[C@@H]2O [PRU-4] | – | – | 6.30 | 10.25 | 9.37 | 5.28 | 5.32 | –
C[C@]12CC[C@@H]3c4ccc(-c5ccccc5)cc4CC[C@H]3[C@@H]1CC[C@@H]2O [PRU-11] | – | – | 6.36 | 5.45 | 72.98 | 5.62 | 4.49 | –
COc1ccc2c(c1)CC[C@@H]1[C@@H]2CC[C@]2(C)C(=O)CC[C@@H]12 [estrone 3-methyl ether, reference compound] | no effect | no effect | – | – | – | – | – | –
CCOc1ccc2c(c1)CC[C@@H]1[C@@H]2CC[C@]2(C)[C@@H](O)CC[C@@H]12 [PRU-5] | – | – | 6.10 | 4.45 | 19.58 | 5.47 | 4.83 | –
CC(C)Oc1ccc2c(c1)CC[C@@H]1[C@@H]2CC[C@]2(C)[C@@H](O)CC[C@@H]12 [PRU-6] | – | – | 6.39 | 8.71 | 19.2 | 5.45 | 5.10 | –
C#C[C@]1(O)CC[C@H]2[C@@H]3CCc4cc(OC)ccc4[C@H]3CC[C@@]21C [mestranol, reference compound] | strongest effect | – | – | – | – | – | – | TRPML1-inhibitory activity, SAR summary [1]: considerable activity; TRPML1 versus TRPML3 selectivity [2]: stronger inhibitory effects on TRPML1 than on TRPML3
C#C[C@]1(O)CC[C@H]2[C@@H]3CCc4cc(O)ccc4[C@H]3CC[C@@]21C [ethinylestradiol, reference compound] | – | – | – | – | – | – | – | TRPML1-inhibitory activity, SAR summary [1]: only weakly active; TRPML1 versus TRPML3 selectivity [2]: stronger inhibitory effects on TRPML1 than on TRPML3
